Data on eleven compounds can be found in patent US5405866A, “Multidrug resistance modifying dithianes” (Hoffmann-La Roche Inc., priority 1991, dated 1995).

As usually defined, the IC50 is the concentration that inhibits the measured activity by half. Broadly, the LD50 is the dose expected to kill half of the subjects tested.

The structures appear in SMILES notation. Like-named read-outs stand apart in the source and are kept apart here.

Series [1] deals with KB-8-5 cells. The experiment in a line: cytotoxicity (IC50) of the test substance, MTT/formazan color reaction. The class given is cell-based. The note with it: Homo sapiens, 120 h. From the text:
(§1) KB-8-5 cells, a human cell line with multiple resistance to cytostatics, and KB-3-1 cells, a correspondingly sensitive cell line [Cell. Mol. Genet. 11, 117-126, (1985) and Science 232, 643-645, (1986)], were cultivated in suitable media [Cancer Res. 94, 267-275, (1984), Exp. Hematol. 12, 559-567, (1984), Eliason, Ramuz & Kaufmann in Int. J. Cancer 46, 113-117, (1990)].
(§2) The biological test is based on the ability of the test substance to lower the concentration of a standard cytostatic which is required to kill 50% of the cells. The testing and the determination of cytotoxicity are based on the ability of living cells to reduce 3-(4,5-dimethylthiazol-2-yl)-2,5-diphenyltetrazolium bromide to the corresponding blue formazan (colorimetric measurement) [J. Immunol. Methods 65, 55-63, (1985)]. The cells were incubated for 2 days in separate containers. The compounds selected for the biological investigation were added to the cell cultures in such a manner that the serial concentrations 10^-8 M, 10^-7 M, 10^-6 M, 10^-5 M and 10^-4 M were achieved. Vincristine in 4 dilution series (3·10^-9 M, 10^-8 M, 3·10^-8 M and 10^-7 M for KB-8-5 cells and 30 times less for the KB-3-1 cells) was added thereto. After incubating for 5 days the cell count was measured at 540 nm using the formazan color reaction. The evaluation was carried out by calculating a resistance modification index, RMI, which is the ratio between the IC50 value of vincristine in the absence of a test substance and the IC50 value of vincristine in the presence of a test substance. [formula]
In order to compare all activities of compounds from different classes, a RMI0.1 is defined: this is the RMI value of a substance which is obtained with the ten-fold lower concentration than the IC50 value. (RMI0.1 ≡RMI at 0.1·IC50 of the substance). […] The preliminary toxicological data (LD50, mouse) after oral administration of the test compound are also given.

Another series is described as follows: in vivo. Conditions: po, mouse, preliminary, read-out: Toxicity (LD50).
The test system of series [2] is KB-8-5 cells. The experiment in a line: resistance modification index (RMI) test with vincristine in multidrug-resistant cells (formazan colorimetric measurement). The class given is cell-based, human. Conditions: RMI at 0.1·IC50 of the substance; RMI = IC50 vincristine without / with test substance; n = 2 (A-E) or 4 (verapamil).
From the text: The modifying activity of multiple resistance to cytostatics of the compounds of formula I, of rac-N-(3,4-dimethoxyphenethyl)-2-(3,4-dimethoxyphenyl)-β,N-dimethyl-m-dithiane-2-propanamine and of usual reference substances was investigated as follows:
as §1
as §2, with “The” for “The biological test is based on the ability of the test substance to lower the concentration of a standard cytostatic which is required to kill 50% of the cells. The”
(RMI0.1 ≡RMI at 0.1·IC50 of the substance).

Series [3] relates to multiple resistance to cytostatics (multidrug resistance). The note with it: literature; cited from earlier work.
Series [4] has the same test system. The experiment in a line: elimination of multiple resistance to cytostatics (literature and background statements). Conditions: compared with compounds of formula I.
The conditions of series [5]: background statement, no test given; cited from earlier work.

On to `COc1ccc(CCN(C)CC(C)CC2(c3ccc(Cl)cc3)SCCCS2)cc1OC.Cl` (racemic) [A, rac-2-(4-Chlorophenyl)-N-(3,4-dimethoxyphenethyl)-β,N-dimethyl-m-dithiane-2-propanamine hydrochloride], for which, in the series on KB-8-5 cells [1] (read-out: IC50), the IC50 worked out at 14 µM. For the same compound, the LD50 in “in vivo” is 1250 to 2500 mg/kg. Moreover, the “Vincristine RMI0.1” value in the series on KB-8-5 cells [2] is 216.
In the same order, the values of `COc1ccc(CCN(C)CC(C)CC2(c3ccc(C)cc3)SCCCS2)cc1OC.Cl` (racemic) [B, rac-N-(3,4-dimethoxyphenethyl)-β,N-dimethyl-2-(4-tolyl)-m-dithiane-2-propanamine hydrochloride] are 14 µM, 625 to 1250 mg/kg and 159.
In the same order, the values of `COc1ccc(C2(CN(C)CC(C)CC3(c4cc(OC)c(OC)c(OC)c4)SCCCS3)CCC2)cc1OC.Cl` (racemic) [C, rac-N-[[1-(3,4-dimethoxyphenyl)cyclobutyl]methyl]-β,N-dimethyl-2-(3,4,5-trimethoxyphenyl)-m-dithiane-2-propanamine hydrochloride] are 21 µM, 1000 to 2000 mg/kg and 224.
For `COc1ccc(C2(CN(C)CC(C)CC3(c4ccc(OC)c(OC)c4)SCCCS3)CCC2)cc1OC.Cl` (racemic) [D, rac-2-(3,4-dimethoxyphenyl)-N-[[1-(3,4-dimethoxyphenyl)cyclobutyl]methyl]-β,N-dimethyl-m-dithiane-2-propanamine hydrochloride], in that order: 21 µM, 1000 to 2000 mg/kg and 163.
Regarding `COc1ccc(C2(CC(C)CN(C)CCc3ccc(Cl)cc3)SCCCS2)cc1OC.Cl` (racemic) [E, rac-N-(4-chlorophenethyl)-2-(3,4-dimethoxyphenyl)-β,N-dimethyl-m-dithiane-2-propanamine hydrochloride], in the series with KB-8-5 cells [1] (read-out: IC50), the IC50 was 7.7 µM. The LD50 in “in vivo” is 2500 to 5000 mg/kg. The “Vincristine RMI0.1” value in the series with KB-8-5 cells [2] came to 24.
For `COc1ccc(CCN(C)CCCC2(c3ccc4ccccc4c3)SCCCS2)cc1OC` (racemic) [rac-N-(3,4-dimethoxyphenethyl)-N-methyl-2-(2-naphthyl)-m-dithiane-2-propanamine], the “activity in eliminating multiple resistance” value in series [3] is “certain activity in partially or completely eliminating multiple resistance”. Moreover, the “activity vis-a-vis the novel compounds of formula I” value in series [4] is on record as “clearly lower activity”. The toxicity result in series [5] was “relatively toxic”.
In turn, `COc1ccc(CCN(C)CCC[C@](C#N)(c2ccc(OC)c(OC)c2)C(C)C)cc1OC` [(+)Verapamil, reference compound] had a concentration for half-maximal inhibition (IC50) with KB-8-5 cells [1] of 62 µM. In the series on KB-8-5 cells [2], the “Vincristine RMI0.1” value is reported as 12.
For `COc1ccc(CCN(C)CCC[C@@](C#N)(c2ccc(OC)c(OC)c2)C(C)C)cc1OC` [(-)Verapamil, reference compound], in that order: 72 µM and 47.
Take `C=C[C@H]1C[N@@]2CC[C@H]1C[C@@H]2[C@@H](O)c1ccnc2ccc(OC)cc12` [quinidine]: the “activity in eliminating multiple resistance” value in series [3] was “certain activity in partially or completely eliminating multiple resistance”.
As to `CN1CCN(CCCN2c3ccccc3Sc3ccc(C(F)(F)F)cc32)CC1` [trifluoperazine], the “activity in eliminating multiple resistance” value in series [3] is reported as “certain activity in partially or completely eliminating multiple resistance”.
In the case of `COc1ccc(CCN(C)CCCC(C#N)(c2ccc(OC)c(OC)c2)C(C)C)cc1OC` (stereo not shown) [verapamil], the “activity in eliminating multiple resistance” value in series [3] is “certain activity in partially or completely eliminating multiple resistance”.
